Experimental data published in ChEMBL document CHEMBL1909046, “DrugMatrix in vitro pharmacology data”.

How the values were obtained:
[1] = DRUGMATRIX: Purinergic P2X radioligand binding (ligand: [3H] alpha, beta-Methylene-ATP); assay type: cell membranes, Oryctolagus cuniculus, New Zealand albino, Urinary bladder, Membrane; details: Not Active = under 50% inhibition at 10 µM
[2] = target: Delta-type opioid receptor (Homo sapiens, UniProt P41143); assay type: cell membranes, HEK293, Membrane; details: hek293; also: in other assays of this panel Not Active means under 50% inhibition at 10 µM
Delta-type opioid receptor, sequence (P41143 whole entry): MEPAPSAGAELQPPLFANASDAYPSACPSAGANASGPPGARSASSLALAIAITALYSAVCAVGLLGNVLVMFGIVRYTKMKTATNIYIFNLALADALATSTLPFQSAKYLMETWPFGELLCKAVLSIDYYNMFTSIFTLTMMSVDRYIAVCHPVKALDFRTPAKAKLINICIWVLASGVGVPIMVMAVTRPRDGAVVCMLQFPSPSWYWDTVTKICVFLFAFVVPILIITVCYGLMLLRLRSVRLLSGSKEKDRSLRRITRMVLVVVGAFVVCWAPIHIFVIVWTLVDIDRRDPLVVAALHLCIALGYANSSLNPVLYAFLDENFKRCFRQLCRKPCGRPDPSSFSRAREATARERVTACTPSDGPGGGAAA

Substance-P receptor = Substance-P receptor (Homo sapiens, UniProt P25103); assay type: cell membranes, CHO, Membrane; details: cho; also: in other assays of this panel Not Active means under 50% inhibition at 10 µM
Substance-P receptor, sequence (P25103 whole entry): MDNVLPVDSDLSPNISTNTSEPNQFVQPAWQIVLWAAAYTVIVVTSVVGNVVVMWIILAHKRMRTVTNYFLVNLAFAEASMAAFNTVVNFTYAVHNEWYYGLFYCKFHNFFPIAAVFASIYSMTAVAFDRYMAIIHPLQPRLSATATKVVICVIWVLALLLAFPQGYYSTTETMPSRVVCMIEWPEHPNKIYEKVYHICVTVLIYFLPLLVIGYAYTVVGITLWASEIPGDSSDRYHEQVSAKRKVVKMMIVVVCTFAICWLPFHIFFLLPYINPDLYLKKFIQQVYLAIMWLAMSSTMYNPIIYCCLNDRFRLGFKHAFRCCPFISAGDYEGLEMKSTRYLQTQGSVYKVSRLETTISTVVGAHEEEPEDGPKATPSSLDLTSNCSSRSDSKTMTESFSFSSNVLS

[3] = DRUGMATRIX: Glutamate, NMDA, Agonism radioligand binding (ligand: [3H] CGP-39653); assay type: cell membranes, Rattus norvegicus, Wistar, Cerebral cortex, Membrane; details: Not Active = under 50% inhibition at 10 µM
[4] = target: 5-hydroxytryptamine receptor 2B (Homo sapiens, UniProt P41595); assay type: cell membranes, CHO-K1, Membrane; details: for Ki: read-out: Ki; as to all read-outs here: in other assays of this panel Not Active means under 50% inhibition at 10 µM
5-hydroxytryptamine receptor 2B, sequence (P41595 whole entry): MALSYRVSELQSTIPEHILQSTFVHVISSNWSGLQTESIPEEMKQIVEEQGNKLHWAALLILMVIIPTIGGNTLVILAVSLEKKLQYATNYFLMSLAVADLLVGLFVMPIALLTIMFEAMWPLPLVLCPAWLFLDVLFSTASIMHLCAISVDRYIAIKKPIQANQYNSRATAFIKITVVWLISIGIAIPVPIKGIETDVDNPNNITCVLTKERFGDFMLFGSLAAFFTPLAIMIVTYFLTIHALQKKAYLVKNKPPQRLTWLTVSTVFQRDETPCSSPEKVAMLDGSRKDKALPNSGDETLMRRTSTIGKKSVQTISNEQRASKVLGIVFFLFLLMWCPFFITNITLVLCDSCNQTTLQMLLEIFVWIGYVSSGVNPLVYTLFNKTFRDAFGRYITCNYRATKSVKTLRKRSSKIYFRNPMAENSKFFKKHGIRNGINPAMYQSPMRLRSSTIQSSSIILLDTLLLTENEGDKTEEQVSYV

Carbonic anhydrase 2 = Carbonic anhydrase 2 (Homo sapiens, UniProt P00918); assay: DRUGMATRIX: Carbonic Anhydrase II enzyme inhibition (substrate: 4-Nitrophenyl acetate (4-NPA)); assay type: tissue-based, Erythrocyte; details: erythrocyte; Not Active = under 50% inhibition at 10 µM
B2 bradykinin receptor = target: T1, B2 bradykinin receptor (Homo sapiens, UniProt P30411); assay type: cell membranes, Membrane; details: chem-1; also: in other assays of this panel Not Active means under 50% inhibition at 10 µM
T1 sequence (P30411 whole entry): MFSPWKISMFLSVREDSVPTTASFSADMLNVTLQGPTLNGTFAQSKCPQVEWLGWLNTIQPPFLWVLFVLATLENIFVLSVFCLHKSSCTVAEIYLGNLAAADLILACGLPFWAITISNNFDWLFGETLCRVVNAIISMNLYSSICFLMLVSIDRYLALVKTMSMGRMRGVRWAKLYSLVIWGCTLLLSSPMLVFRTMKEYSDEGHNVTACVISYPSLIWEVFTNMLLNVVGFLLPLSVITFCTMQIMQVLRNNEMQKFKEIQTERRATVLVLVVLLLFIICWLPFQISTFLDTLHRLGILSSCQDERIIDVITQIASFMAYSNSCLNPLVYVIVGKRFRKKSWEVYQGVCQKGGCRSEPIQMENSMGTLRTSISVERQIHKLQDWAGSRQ

[5] = DRUGMATRIX: Atrial Natriuretic Factor (ANF) radioligand binding (ligand: [125I] ANF (rat)); assay type: cell membranes, Cavia porcellus, Dunkin-Hartley, Adrenal gland, Membrane; details: Not Active = under 50% inhibition at 10 µM
[6] = DRUGMATRIX: Leukotriene, BLT (LTB4) radioligand binding (ligand: [3H]LTB4); assay type: cell membranes, Membrane; details: u-937; Not Active = under 50% inhibition at 10 µM

Compound | IC50 [1] | Ki [1] | IC50 [2] | IC50 (Substance-P receptor) | IC50 [3] | Ki [3] | IC50 ([4]; cho-k1) | IC50 (Carbonic anhydrase 2) | IC50 (B2 bradykinin receptor) | IC50 [5] | Ki [5] | IC50 [6] | Ki [6] | IC50 ([4]; read-out: IC50) | Ki [4]
CC(C)CN(C[C@@H](O)[C@H](Cc1ccccc1)NC(=O)O[C@H]1CCOC1)S(=O)(=O)c1ccc(N)cc1 | Not Active | Not Active | Not Active | Not Active | Not Active | Not Active | Not Active | Not Active | Not Active | Not Active | Not Active | Not Active | Not Active |  | 
c1ccc(Nc2ccc(Nc3ccccc3)cc2)cc1 | Not Active | Not Active | Not Active | Not Active | Not Active | Not Active |  | Not Active | Not Active | Not Active | Not Active | Not Active | Not Active | 142 nM | 90 nM
COc1cc2c3cc1Oc1cc(ccc1O)C[C@@H]1c4c(cc(OC)c(O)c4Oc4ccc(cc4)C[C@@H]3N(C)CC2)CC[N+]1(C)C.[Cl-] | Not Active | Not Active | Not Active | Not Active | Not Active | Not Active | Not Active | Not Active | Not Active | Not Active | Not Active | Not Active | Not Active |  | 
NC(=O)N1c2ccccc2CCc2ccccc21 | Not Active | Not Active | Not Active | Not Active | Not Active | Not Active | Not Active | Not Active | Not Active | Not Active | Not Active | Not Active | Not Active |  | 
O=C1CC[C@@H](N2C(=O)c3ccccc3C2=O)C(=O)N1 | Not Active | Not Active | Not Active | Not Active | Not Active | Not Active | Not Active | Not Active | Not Active | Not Active | Not Active | Not Active | Not Active |  | 
Cc1onc(O)c1CC(N)C(=O)O (racemic) [(R,S)-AMPA] | Not Active | Not Active | Not Active | Not Active | Not Active | Not Active | Not Active | Not Active | Not Active | Not Active | Not Active | Not Active | Not Active |  | 
Cc1ccc2cc3c(ccc4ccccc43)c3c2c1CC3 [3-METHYLCHOLANTHRENE] | Not Active | Not Active | Not Active | Not Active | Not Active | Not Active | Not Active | Not Active | Not Active | Not Active | Not Active | Not Active | Not Active |  | 
CC[C@@]1(O)C[C@H](O[C@H]2C[C@H](N(C)C)[C@H](O[C@H]3C[C@H](O)[C@H](O[C@H]4CCC(=O)[C@H](C)O4)[C@H](C)O3)[C@H](C)O2)c2c(cc3c(c2O)C(=O)c2c(O)cccc2C3=O)[C@H]1C(=O)OC [ACLARUBICIN] | Not Active | Not Active | Not Active | Not Active | Not Active | Not Active |  | Not Active | Not Active | Not Active | Not Active | Not Active | Not Active | 1110 nM | 704 nM
Nc1nc2c(ncn2COCCO)c(=O)[nH]1 [ACYCLOVIR] | Not Active | Not Active | Not Active | Not Active | Not Active | Not Active | Not Active | Not Active | Not Active | Not Active | Not Active | Not Active | Not Active |  | 
Cc1c(C)c2c(c(C)c1O)CC[C@@](C)(CCC[C@H](C)CCC[C@H](C)CCCC(C)C)O2 [ALPHA-TOCOPHEROL] | Not Active | Not Active | Not Active | Not Active | Not Active | Not Active | Not Active | Not Active | Not Active | Not Active | Not Active | Not Active | Not Active |  | 
CN(C)c1nc(N(C)C)nc(N(C)C)n1 [ALTRETAMINE] | Not Active | Not Active | Not Active | Not Active | Not Active | Not Active | Not Active | Not Active | Not Active | Not Active | Not Active | Not Active | Not Active |  | 
Nc1c(Br)cc(Br)cc1CN[C@H]1CC[C@H](O)CC1 [AMBROXOL] | Not Active | Not Active | Not Active | Not Active | Not Active | Not Active | Not Active | Not Active | Not Active | Not Active | Not Active | Not Active | Not Active |  | 
NCCCCCC(=O)O [AMINOCAPROIC ACID] | Not Active | Not Active | Not Active | Not Active | Not Active | Not Active | Not Active | Not Active | Not Active | Not Active | Not Active | Not Active | Not Active |  | 
CCC1(c2ccc(N)cc2)CCC(=O)NC1=O (centres undefined) [AMINOGLUTETHIMIDE] | Not Active | Not Active | Not Active | Not Active | Not Active | Not Active | Not Active | Not Active | Not Active | Not Active | Not Active | Not Active | Not Active |  | 
Cc1ccc(/N=C/N(C)/C=N/c2ccc(C)cc2C)c(C)c1 [AMITRAZ] | Not Active | Not Active | Not Active | Not Active | Not Active | Not Active | Not Active | Not Active | Not Active | Not Active | Not Active | Not Active | Not Active |  | 
CCOC(=O)C1=C(COCCN)NC(C)=C(C(=O)OC)C1c1ccccc1Cl (centres undefined) [AMLODIPINE] | Not Active | Not Active | Not Active | Not Active | Not Active | Not Active | Not Active | Not Active | Not Active | Not Active | Not Active | Not Active | Not Active |  | 
Cc1ccc(-c2cc(C(F)(F)F)nn2-c2ccc(S(N)(=O)=O)cc2)cc1 [CELECOXIB] | Not Active | Not Active | Not Active | Not Active | Not Active | Not Active | Not Active |  | Not Active | Not Active | Not Active | Not Active | Not Active |  | 
CN(C)CCCN1c2ccccc2Sc2ccc(Cl)cc21 [CHLORPROMAZINE] | Not Active | Not Active |  | Not Active | Not Active | Not Active |  | Not Active | Not Active | Not Active | Not Active | Not Active | Not Active |  | 
COc1cc2nc(N3CCN(C(=O)C4COc5ccccc5O4)CC3)nc(N)c2cc1OC (centres undefined) [DOXAZOSIN] | Not Active | Not Active | Not Active | Not Active | Not Active | Not Active |  | Not Active | Not Active | Not Active | Not Active | Not Active | Not Active |  | 
C[C@]12CC[C@@H]3c4ccc(O)cc4CC[C@H]3[C@@H]1CCC2=O [ESTRONE] | Not Active | Not Active | Not Active | Not Active | Not Active | Not Active |  | Not Active | Not Active | Not Active | Not Active | Not Active | Not Active |  | 
Cc1ccc(N(CC2=NCCN2)c2cccc(O)c2)cc1 [PHENTOLAMINE] | Not Active | Not Active | Not Active | Not Active | Not Active | Not Active |  | Not Active | Not Active | Not Active | Not Active | Not Active | Not Active |  | 
